Laboratory results published in patent publication US20220402948A1, “EGFR INHIBITOR, COMPOSITION AND PREPARATION METHOD THEREFOR” (BETTA PHARMACEUTICALS CO., LTD., priority 2019, published 2022).
Where two headings read alike, the source gives them in different places.

Tests used:
[1] = target: Ba/F3 cells with EGFR Δ19del/T790M/C797S mutation gene stably overexpressed (Homo sapiens, UniProt P00533, T790M/C797S, cells depend on it, form not given); experiment: Ba/F3-Δ19del/T790M/C797S cell proliferation assay (CellTiter Glo, 72 hours); format: cell-based; conditions: Table 2, read-out: EGFR Δ19del/T790M/C797S IC50
Ba/F3 cells with EGFR Δ19del/T790M/C797S mutation gene stably overexpressed, sequence (P00533 with tags, fused parts or gaps DEL746-750/T790M/C797S, form open): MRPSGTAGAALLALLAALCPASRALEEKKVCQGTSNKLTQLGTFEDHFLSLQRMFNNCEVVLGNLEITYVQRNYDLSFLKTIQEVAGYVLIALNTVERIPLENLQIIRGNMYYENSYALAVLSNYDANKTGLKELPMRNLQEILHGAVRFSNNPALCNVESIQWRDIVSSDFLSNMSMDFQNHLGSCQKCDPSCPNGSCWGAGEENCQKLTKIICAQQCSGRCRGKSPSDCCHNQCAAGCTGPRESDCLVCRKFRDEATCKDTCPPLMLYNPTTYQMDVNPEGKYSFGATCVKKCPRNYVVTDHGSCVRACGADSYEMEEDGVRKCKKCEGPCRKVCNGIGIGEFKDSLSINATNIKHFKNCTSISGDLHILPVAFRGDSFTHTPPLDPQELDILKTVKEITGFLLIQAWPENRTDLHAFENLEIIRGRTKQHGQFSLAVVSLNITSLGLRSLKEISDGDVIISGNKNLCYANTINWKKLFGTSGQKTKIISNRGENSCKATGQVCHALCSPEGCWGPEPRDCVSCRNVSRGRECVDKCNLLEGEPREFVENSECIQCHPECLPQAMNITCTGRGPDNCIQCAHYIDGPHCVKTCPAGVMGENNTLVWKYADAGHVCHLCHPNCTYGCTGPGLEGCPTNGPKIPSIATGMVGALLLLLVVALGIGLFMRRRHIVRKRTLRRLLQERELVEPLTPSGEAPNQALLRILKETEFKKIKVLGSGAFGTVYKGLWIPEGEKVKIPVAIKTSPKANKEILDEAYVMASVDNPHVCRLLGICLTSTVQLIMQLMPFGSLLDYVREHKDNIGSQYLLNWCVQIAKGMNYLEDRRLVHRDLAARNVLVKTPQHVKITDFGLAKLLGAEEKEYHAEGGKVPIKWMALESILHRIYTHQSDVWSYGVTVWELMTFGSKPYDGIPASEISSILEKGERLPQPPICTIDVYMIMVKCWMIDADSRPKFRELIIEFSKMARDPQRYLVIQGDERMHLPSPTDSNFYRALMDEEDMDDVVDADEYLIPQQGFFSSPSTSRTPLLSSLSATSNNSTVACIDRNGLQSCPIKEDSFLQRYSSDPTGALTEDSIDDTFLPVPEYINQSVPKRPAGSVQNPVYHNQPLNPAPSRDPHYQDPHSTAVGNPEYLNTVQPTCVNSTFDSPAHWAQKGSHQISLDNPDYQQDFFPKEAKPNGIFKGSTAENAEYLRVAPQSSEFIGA
Summary of the method: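 Ba/F3 cells stably overexpressing wild-type EGFR or EGFR Δ19del/T790M/C797S were seeded at 2000 cells/well and incubated 72 h with compound. Viability was read by CellTiter-Glo luminescence, and IC50 came from a four-parameter logistic fit of signal against log concentration.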

A431 = A431 cell proliferation assay (CellTiter Glo, 72 hours); format: cell-based; conditions: cell proliferation, A431, 72 hours, Table 2, read-out: A431 IC50
Summary of the method: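 A431 cells (2000/well) exposed 72 h to compound at 1000 nM down to 0.2 nM in 3-fold steps, 0.1% DMSO (0.5% for some series). Viability by CellTiter-Glo luminescence; IC50 by four-parameter nonlinear regression.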

EGFRΔ19del/T790M/C797S = EGFRΔ19del/T790M/C797S (Homo sapiens, UniProt P00533, T790M/C797S, form not given); experiment: EGFR Δ19del/T790M/C797S kinase test (mobility variation analysis, Caliper EZ Reader); format: biochemical; conditions: kinase enzymatic activity, Table 1
EGFRΔ19del/T790M/C797S, sequence (P00533 with tags, fused parts or gaps DEL746-750/T790M/C797S, form open): as above
Summary of the method: (§1)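 Kinase pre-incubated with compound 10 minutes at room temperature, then ATP plus peptide substrate added; substrate conversion read by mobility shift after stop solution. Percent inhibition normalized to no-compound and no-enzyme controls; IC50 from variable-slope log(inhibitor) fit.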

[2] = target: Ba/F3-EGFR wild-type cell line (Homo sapiens, UniProt P00533); experiment: Ba/F3-EGFR wild-type cell proliferation assay (CellTiter Glo, 72 hours); format: cell-based; conditions: Table 2, read-out: EGFR WT IC50
Ba/F3-EGFR wild-type cell line, sequence (P00533 whole entry, stated change not applied): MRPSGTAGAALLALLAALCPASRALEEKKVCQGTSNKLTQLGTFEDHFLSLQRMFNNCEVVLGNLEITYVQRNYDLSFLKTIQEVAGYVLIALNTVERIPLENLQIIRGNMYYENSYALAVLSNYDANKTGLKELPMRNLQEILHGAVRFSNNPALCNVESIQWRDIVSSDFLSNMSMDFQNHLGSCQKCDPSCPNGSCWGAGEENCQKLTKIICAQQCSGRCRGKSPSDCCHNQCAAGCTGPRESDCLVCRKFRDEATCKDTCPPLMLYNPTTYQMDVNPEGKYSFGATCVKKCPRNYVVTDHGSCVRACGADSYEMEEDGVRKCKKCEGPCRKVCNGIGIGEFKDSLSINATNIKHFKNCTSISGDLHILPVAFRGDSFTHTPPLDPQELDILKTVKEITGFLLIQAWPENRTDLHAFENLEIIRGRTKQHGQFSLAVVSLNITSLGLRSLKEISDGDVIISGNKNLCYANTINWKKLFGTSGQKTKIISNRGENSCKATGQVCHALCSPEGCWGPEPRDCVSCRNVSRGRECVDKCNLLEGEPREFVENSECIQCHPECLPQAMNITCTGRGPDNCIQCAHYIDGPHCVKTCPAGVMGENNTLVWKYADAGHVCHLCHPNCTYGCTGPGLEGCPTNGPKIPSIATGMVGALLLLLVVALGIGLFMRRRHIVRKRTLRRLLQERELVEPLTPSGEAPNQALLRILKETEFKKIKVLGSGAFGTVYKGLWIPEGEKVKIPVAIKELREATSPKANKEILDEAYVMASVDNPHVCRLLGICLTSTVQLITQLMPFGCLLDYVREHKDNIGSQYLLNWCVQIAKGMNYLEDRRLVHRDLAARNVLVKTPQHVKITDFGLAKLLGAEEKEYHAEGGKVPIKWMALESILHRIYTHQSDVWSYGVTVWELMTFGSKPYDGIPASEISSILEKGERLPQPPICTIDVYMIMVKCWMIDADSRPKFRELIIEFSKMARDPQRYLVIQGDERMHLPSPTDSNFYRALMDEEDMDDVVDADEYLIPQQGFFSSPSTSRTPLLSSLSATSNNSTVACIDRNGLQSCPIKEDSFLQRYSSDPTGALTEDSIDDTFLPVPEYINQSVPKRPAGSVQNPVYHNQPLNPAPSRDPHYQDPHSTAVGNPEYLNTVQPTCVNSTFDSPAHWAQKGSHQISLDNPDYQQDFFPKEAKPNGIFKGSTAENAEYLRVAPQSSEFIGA
Procedure: Cell line: Ba/F3 cells with EGFR Δ19del/T790M/C797S mutation gene stably overexpressed named Ba/F3-Δ119del/T90M/C797S, and A431 and Ba/F3-EGFR wild-type cell line.
a) Centrifuge the growth cells in logarithmic phase at 1000 rpm for 5 minutes, resuspend the cells in culture medium, and then count the cells;
b) Inoculate the cells into a 96-well cell culture plate with a density of 2000 cells/well;
b) Incubate cells in an incubator for another 72 hours.
a) Take out the 96-well cell culture plate and add 50 μl CTG reagent (CellTiter Glo kit, promega, Cat #G7573);
b) Shake the plate for 2 minutes and let cool at room temperature for 10 minutes;
c) Read luminous signal value with PerkinElmer reader,
Analysis of Experimental Data
The data were analyzed by GraphPad Prism 6.0 software to obtain the fitting curve of compound activity.
Y=Min+(Max−Min)/(1+10^((Log IC50−X)*slope));
X: Logarithm of compound concentration; Y: luminous signal.

EGFR WT = EGFR WT (Homo sapiens, UniProt P00533); experiment: EGFR WT kinase test (mobility variation analysis, Caliper EZ Reader); format: biochemical; conditions: kinase enzymatic activity, Table 1
Summary of the method: as §1

IGF1R = IGF1R (Homo sapiens, UniProt P08069); experiment: IGF1R kinase test (mobility variation analysis, Caliper EZ Reader); format: biochemical; conditions: kinase enzymatic activity, Table 1; read-out: EGFR IGF1R IC50
IGF1R, sequence (P08069 31-1367, species assumed): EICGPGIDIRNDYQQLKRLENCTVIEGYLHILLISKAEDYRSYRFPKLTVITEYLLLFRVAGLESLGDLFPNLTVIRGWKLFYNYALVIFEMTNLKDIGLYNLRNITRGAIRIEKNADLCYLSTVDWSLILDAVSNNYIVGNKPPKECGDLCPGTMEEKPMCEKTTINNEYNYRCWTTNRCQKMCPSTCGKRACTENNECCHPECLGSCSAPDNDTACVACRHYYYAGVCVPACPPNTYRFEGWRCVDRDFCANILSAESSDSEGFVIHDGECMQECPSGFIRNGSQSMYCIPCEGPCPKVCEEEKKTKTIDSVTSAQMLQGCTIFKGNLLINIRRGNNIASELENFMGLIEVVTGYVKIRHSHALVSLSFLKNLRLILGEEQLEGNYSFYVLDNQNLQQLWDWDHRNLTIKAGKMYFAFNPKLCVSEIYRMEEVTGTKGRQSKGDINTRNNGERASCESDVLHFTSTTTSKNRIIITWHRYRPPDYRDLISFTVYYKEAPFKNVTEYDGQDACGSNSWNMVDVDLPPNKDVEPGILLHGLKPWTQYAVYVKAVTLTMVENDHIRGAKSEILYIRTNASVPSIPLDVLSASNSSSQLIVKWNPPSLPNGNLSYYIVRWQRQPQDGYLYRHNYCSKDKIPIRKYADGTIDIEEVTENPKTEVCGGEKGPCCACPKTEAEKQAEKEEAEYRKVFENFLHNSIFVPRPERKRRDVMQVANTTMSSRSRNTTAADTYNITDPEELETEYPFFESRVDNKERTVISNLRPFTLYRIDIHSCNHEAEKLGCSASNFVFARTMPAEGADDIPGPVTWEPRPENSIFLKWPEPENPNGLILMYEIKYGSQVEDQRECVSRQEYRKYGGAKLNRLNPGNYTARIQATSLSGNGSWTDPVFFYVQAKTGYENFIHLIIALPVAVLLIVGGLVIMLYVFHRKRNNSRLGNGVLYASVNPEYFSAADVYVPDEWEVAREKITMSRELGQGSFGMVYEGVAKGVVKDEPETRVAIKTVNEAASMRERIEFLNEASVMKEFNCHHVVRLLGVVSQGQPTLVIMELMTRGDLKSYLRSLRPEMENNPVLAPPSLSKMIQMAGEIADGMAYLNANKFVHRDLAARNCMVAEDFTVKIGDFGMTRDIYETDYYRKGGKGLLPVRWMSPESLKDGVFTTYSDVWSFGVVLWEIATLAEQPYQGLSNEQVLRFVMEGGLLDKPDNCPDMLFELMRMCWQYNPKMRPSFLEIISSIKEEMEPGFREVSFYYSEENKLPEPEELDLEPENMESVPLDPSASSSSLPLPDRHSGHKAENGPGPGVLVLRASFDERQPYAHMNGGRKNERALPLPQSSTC
Summary of the method: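 Kinase preincubated 10 min at room temperature with compound (10-point 3-fold series, top 3000 nM), then ATP and substrate added and reacted at room temperature. Substrate conversion read by mobility-shift (Caliper EZ Reader); % inhibition vs no-enzyme and no-compound controls fitted to variable-slope curve for IC50.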

Structure (SMILES) | GI50 [1] [nM] | IC50 (A431; Homo sapiens, A-431, 72 h) [nM] | IC50 (EGFRΔ19del/T790M/C797S) [nM] | GI50 [2] [nM] | IC50 (EGFR WT) [nM] | IC50 (IGF1R) [nM] | IC50 (A431) [nM]
COc1cc(Nc2ncc(Br)c(Nc3ccc(-c4cnccn4)cc3P(C)(C)=O)n2)c(C)cc1N1CCOCC1 [Compound K-022] | 16.5 | 1460 | 0.2 | 281 | 31.8 | 52.5 | 
CCOc1cnc(-c2ccc(Nc3nc(Nc4cc(CC)c(N5CCC(N6CCN(C)CC6)CC5)cc4OC)ncc3Br)c(P(C)(C)=O)c2)nc1 [Compound 75] | 16.8 | > 10000 | 0.5 | 1010 | 16 | 91 | 
COc1cc(Nc2ncc(Br)c(Nc3ccc(-c4cnn(C)n4)cc3P(C)(C)=O)n2)c(C)cc1N1CCOCC1 [Compound K-015, (2-((5-Bromo-2-((5-methoxy-2-methyl-4-morpholinophenyl)amino)pyrimidin-4-yl)amino)-5-(2-methyl-2H-1,2,3-triazol-4-yl)phenyl)dimethylphosphine oxide] | 13.6 | 953 | 0.2 | 178 | 27.4 | 56.6 | 
CCc1cc(Nc2ncc(Cl)c(Nc3ccc(-c4cnccn4)cc3P(C)(C)=O)n2)c(OC)cc1N1CCC(N2CCN(C)CC2)CC1 [Compound 32, (2-((5-Chloro-2-((5-ethyl-2-methoxy-4-(4-(4-methylpiperazin-1-yl)piperidin-1-yl)phenyl)amino)pyrimidin-4-yl)amino)-5-(pyrazin-2-yl)phenyl)dimethylphosphine oxide] | 17.8 | 749 | 0.4 | 196 | 19.3 | 184 | 
CCc1cc(Nc2ncc(Br)c(Nc3ccc(-c4ccc(OC)s4)cc3P(C)(C)=O)n2)c(OC)cc1N1CCC(N2CCN(C)CC2)CC1 [Compound K-072, (2-((5-Bromo-2-((5-ethyl-2-methoxy-4-(4-(4-methylpiperazin-1-yl)piperidin-1-yl)phenyl)amino)pyrimidin-4-yl)amino)-5-(5-methoxythiophen-2-yl)phenyl)dimethylphosphine oxide] | 50.3 | 1930 | 0.96 | 446 | 12 | 150 | 
CCc1cc(Nc2ncc(Br)c(Nc3ccc(-n4cc(C)cn4)cc3P(C)(C)=O)n2)c(OC)cc1N1CCC(N2CCN(C)CC2)CC1 [Compound K-069, (2-((5-Bromo-2-((5-ethyl-2-methoxy-4-(4-(4-methylpiperazin-1-yl)piperidin-1-yl)phenyl)amino)pyrimidin-4-yl)amino)-5-(4-methyl-1H-pyrazol-1-yl)phenyl)dimethylphosphine oxide] | 37.4 |  | 0.67 | 355 | 26.7 | 219 | 1610
COc1cc(N2CCOCC2)c(C#N)cc1Nc1ncc(Br)c(Nc2ccc(-c3nccs3)cc2P(C)(C)=O)n1 [Compound K-027, 5-((5-Bromo-4-((2-(dimethylphosphineoxide)-4-(thiazol-2-yl)phenyl)amino)pyrimidin-2-yl)amino)-4-methoxy-2-morpholinobenzonitrile] | 12.9 | 4050 | 0.6 | 453 | 50.2 | 364 | 
COc1cc(N2CCN(C)CC2)c(C)cc1Nc1ncc(Br)c(Nc2ccc(-c3nccs3)cc2P(C)(C)=O)n1 [Compound K-029, (2-((5-Bromo-2-((2-methoxy-5-methyl-4-(4-methylpiperazin-1-yl)phenyl)amino)pyrimidin-4-yl)amino)-5-(thiazol-2-yl)phenyl)dimethylphosphine oxide] | 15.2 | 3180 | 0.3 | 52.1 | 60.6 | 91 | 
CCc1cc(Nc2ncc(Br)c(Nc3ccc(-c4cnn(C)n4)cc3P(C)(C)=O)n2)c(OC)cc1N1CCC(N2CCOCC2)CC1 [Compound K-040, (2-((5-Bromo-2-((5-ethyl-2-methoxy-4-(4-morpholinopiperidin-1-yl)phenyl)amino)pyrimidin-4-yl)amino)-5-(2-methyl-2H-1,2,3-triazol-4-yl)phenyl)dimethylphosphine oxide] | 14.5 | 6630 | 0.3 | 302 | 24.5 | 134 | 
CCc1cc(Nc2ncc(Br)c(Nc3ccc(-c4ncc(F)cn4)cc3P(C)(C)=O)n2)c(OC)cc1N1CCC(N2CCN(C)CC2)CC1 [Compound 29, (2-((5-Bromo-2-((5-ethyl-2-methoxy-4-(4-(4-methylpiperazin-1-yl)piperidin-1-yl)phenyl)amino)pyrimidin-4-yl)amino)-5-(5-fluoropyrimidin-2-yl)phenyl)dimethylphosphine oxide] | 13.4 | 2660 | 0.2 | 194 | 16 | 80 | 
CCc1cc(Nc2ncc(Br)c(Nc3ccc(-c4ncn(C)n4)cc3P(C)(C)=O)n2)c(OC)cc1N1CCC(N2CCN(C)CC2)CC1 [Compound 31, (2-((5-Bromo-2-((5-ethyl-2-methoxy-4-(4-(4-methylpiperazin-1-yl)piperidin-1-yl)phenyl)amino)pyrimidin-4-yl)amino)-5-(1-methyl-1H-1,2,4-triazol-3-yl)phenyl)dimethylphosphine oxide] | 20.8 | 1030 | 0.3 | 559 | 27.6 | 179 | 

Now those with a lower GI50 [1], led by results:

GI50 [1] [nM] | IC50 (A431; Homo sapiens, A-431, 72 h) [nM] | IC50 (EGFRΔ19del/T790M/C797S) [nM] | GI50 [2] [nM] | IC50 (EGFR WT) [nM] | IC50 (IGF1R) [nM] | IC50 (A431) [nM] | Structure (SMILES)
9 | 6290 | 0.9 | 407 | 38.6 | 246 |  | CCc1cnc(-c2ccc(Nc3nc(Nc4cc(CC)c(N5CCC(N6CCN(C)CC6)CC5)cc4OC)ncc3Br)c(P(C)(C)=O)c2)nc1 [Compound 70]
4.8 | 1340 | 0.3 | 128 | 55.2 | 106 |  | COc1cc(Nc2ncc(Br)c(Nc3ccc(-c4ccc(C)cn4)cc3P(C)(C)=O)n2)c(C)cc1N1CCOCC1 [Compound K-032, (2-((5-Bromo-2-((5-methoxy-2-methyl-4-morpholinophenyl)amino)pyrimidin-4-yl)amino)-5-(5-methylpyridin-2-yl)phenyl)dimethylphosphine oxide]
7.4 | 4820 | 0.1 | 245 | 17.2 | 96.1 |  | COc1cnn(-c2ccc(Nc3nc(Nc4cc(C)c(N5CCC(N6CCCCC6)CC5)cc4OC)ncc3Br)c(P(C)(C)=O)c2)c1 [Compound K-087]
10.6 | 2300 | 1.1 | 105 | 13.9 | 134 |  | CCc1cc(Nc2ncc(Br)c(Nc3ccc(-c4cc(C)n(C)n4)cc3P(C)(C)=O)n2)c(OC)cc1N1CCC(N2CCN(C)CC2)CC1 [Compound K-066]
4.8 | 415 | 0.24 | 169 | 15 | 120 |  | COc1cc(N2CCC(N3CCN(C)CC3)CC2)c(C)cc1Nc1ncc(Br)c(Nc2ccc(-c3cnn(C)n3)cc2P(C)(C)=O)n1 [Compound K-008, (2-((5-Bromo-2-((2-methoxy-5-methyl-4-(4-(4-methylpiperazin-1-yl)piperidin-1-yl)phenyl)amino)pyrimidin-4-yl)amino)-5-(2-methyl-2H-1,2,3-triazol-4-yl)phenyl)dimethylphosphine oxide]
7.6 | 306 | 0.5 | 34.8 | 9.9 | 28.7 |  | CCc1cc(Nc2ncc(Br)c(Nc3ccc(-c4cnn(C)c4)c(C)c3P(C)(C)=O)n2)c(OC)cc1N1CCC(N2CCN(C)CC2)CC1 [Compound K-046, (6-((5-Bromo-2-((5-ethyl-2-methoxy-4-(4-(4-methylpiperazin-1-yl)piperidin-1-yl)phenyl)amino)pyrimidin-4-yl)amino)-2-methyl-3-(1-methyl-1H-pyrazol-4-yl)phenyl)dimethylphosphine oxide]
